# Target: His-tagged N-terminal ATP binding domain (amino acid residues 9-236) of HSP90α (Homo sapiens, UniProt P07900)
# Assay: HSP90 inhibitor binding potency: TRF competition binding assay
# Settings: Table II; read-out: Hsp90 IC50 Range
# In short: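 Competition against biotinylated radicicol for binding to the His-tagged 9-236 ATP domain of HSP90α: 2 h, room temperature, HEPES/MgCl2/KCl/BSA buffer. Streptavidin capture, then europium-labeled anti-His antibody and enhancement solution; europium counts give IC50.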
row,IC50,SMILES
1,1 to 10 µM,"CCc1nc(N)nc2c1C(=O)CC(c1ccc(F)cc1-c1cccnc1F)C2 (stereo not shown) [Compound 319, 2-amino-4-ethyl-7-[4-fluoro-2-(2-fluoro-pyridin-3-yl)-phenyl]-7,8-dihydro-6H-quinazolin-5-one]"
2,> 10 µM,"CCc1nc(N)nc2c1C(=O)CC(c1ccc(F)cc1-c1cccc(OC)c1F)C2 (stereo not shown) [Compound 320, 2-amino-7-(5,2′-difluoro-3′-methoxy-biphenyl-2-yl)-4-ethyl-7,8-dihydro-6H-quinazolin-5-one]"
3,1 to 10 µM,"CCc1nc(N)nc2c1C(=O)CC(c1ccc(F)cc1-c1ccccc1OC)C2 (stereo not shown) [Compound 321, 2-amino-4-ethyl-7-(5-fluoro-2′-methoxy-biphenyl-2-yl)-7,8-dihydro-6H-quinazolin-5-one]"
4,< 1 µM,"COc1ncc(-c2cc(F)ccc2C2CC(=O)c3c(C)nc(N)nc3C2)nc1OC (stereo not shown) [Compound 322, 2-amino-7-[2-(5,6-dimethoxy-pyrazin-2-yl)-4-fluoro-phenyl]-4-methyl-7,8-dihydro-6H-quinazolin-5-one]"
5,< 1 µM,"COc1ncc(-c2cc(F)ccc2[C@@H]2CC(=O)c3c(C)nc(N)nc3C2)nc1OC [Compound 323, (S)-2-amino-7-[2-(5,6-dimethoxy-pyrazin-2-yl)-4-fluoro-phenyl]-4-methyl-7,8-dihydro-6H-quinazolin-5-one]"
6,< 1 µM,"CCc1nc(N)nc2c1C(=O)CC(c1ccc(F)cc1-c1cnc(OC)c(OC)n1)C2 (stereo not shown) [Compound 324, 2-amino-7-[2-(5,6-dimethoxy-pyrazin-2-yl)-4-fluoro-phenyl]-4-ethyl-7,8-dihydro-6H-quinazolin-5-one]"
7,< 1 µM,"CCc1nc(N)nc2c1C(=O)CC(c1ccc(F)cc1-c1cncc(OC)n1)C2 (stereo not shown) [Compound 325, 2-amino-4-ethyl-7-[4-fluoro-2-(6-methoxy-pyrazin-2-yl)-phenyl]-7,8-dihydro-6H-quinazolin-5-one]"
8,1 to 10 µM,"CC(=O)c1ccc(-c2cc(F)ccc2[C@@H]2CC(=O)c3c(C)nc(N)nc3C2)s1 [Compound 326, (S)-7-[2-(5-Acetyl-thiophen-2-yl)-4-fluoro-phenyl]-2-amino-4-methyl-7,8-dihydro-6H-quinazolin-5-one]"
9,< 1 µM,"COc1cc(-n2ccnc2C2CC(=O)c3c(C)nc(N)nc3C2)c(OC)cc1Cl (stereo not shown) [Compound 327, 2-amino-7-[1-(4-chloro-2,5-dimethoxy-phenyl)-1H-imidazol-2-yl]-4-methyl-7,8-dihydro-6H-quinazolin-5-one]"
10,1 to 10 µM,"Cc1nc(N)nc2c1C(=O)CC(c1nccn1-c1ccc(Cl)cc1F)C2 (stereo not shown) [Compound 328, 2-amino-7-[1-(4-chloro-2-fluoro-phenyl)-1H-imidazol-2-yl]-4-methyl-7,8-dihydro-6H-quinazolin-5-one]"
11,1 to 10 µM,"Cc1ccc(-n2ccnc2C2CC(=O)c3c(C)nc(N)nc3C2)c(F)c1 (stereo not shown) [Compound 329, 2-amino-7-[1-(2-fluoro-4-methyl-phenyl)-1H-imidazol-2-yl]-4-methyl-7,8-dihydro-6H-quinazolin-5-one]"
12,1 to 10 µM,"COc1cc(Cl)c(C)cc1-n1ccnc1C1CC(=O)c2c(C)nc(N)nc2C1 (stereo not shown) [Compound 330, 2-amino-7-[1-(4-chloro-2-methoxy-5-methyl-phenyl)-1H-imidazol-2-yl]-4-methyl-7,8-dihydro-6H-quinazolin-5-one]"
13,> 10 µM,"Cc1nc(N)nc2c1C(=O)C[C@@H](c1ccc(F)cc1-c1cnc3ncn(C)c3n1)C2 [Compound 331, (S)-2-amino-7-[4-fluoro-2-(3-methyl-3H-imidazo[4,5-b]pyrazin-5-yl)-phenyl]-4-methyl-7,8-dihydro-6H-quinazolin-5-one]"
14,< 1 µM,"COc1nc(-c2cc(F)ccc2[C@@H]2CC(=O)c3c(C)nc(N)nc3C2)cnc1C [Compound 332, (S)-2-amino-7-[4-fluoro-2-(6-methoxy-5-methyl-pyrazin-2-yl)-phenyl]-4-methyl-7,8-dihydro-6H-quinazolin-5-one]"
15,1 to 10 µM,"CCc1cc(-n2ccnc2C2CC(=O)c3c(C)nc(N)nc3C2)ccc1C (stereo not shown) [Compound 333, 2-amino-7-[1-(3-ethyl-4-methyl-phenyl)-1H-imidazol-2-yl]-4-methyl-7,8-dihydro-6H-quinazolin-5-one]"
16,< 1 µM,"COc1nc(-c2cc(F)ccc2C2CC(=O)c3c(C)nc(N)nc3C2)cnc1Cl (stereo not shown) [Compound 334, 2-amino-7-[2-(5-chloro-6-methoxy-pyrazin-2-yl)-4-fluoro-phenyl]-4-methyl-7,8-dihydro-6H-quinazolin-5-one]"
17,< 1 µM,"CCc1nc(N)nc2c1C(=O)CC(c1ccc(F)cc1-c1cnc(N)c(OC)n1)C2 (stereo not shown) [Compound 335, 2-amino-7-[2-(5-amino-6-methoxy-pyrazin-2-yl)-4-fluoro-phenyl]-4-ethyl-7,8-dihydro-6H-quinazolin-5-one]"
18,< 1 µM,"CCOc1cncc(-c2cc(F)ccc2[C@@H]2CC(=O)c3c(C)nc(N)nc3C2)n1 [Compound 336, (S)-2-amino-7-[2-(6-ethoxy-pyrazin-2-yl)-4-fluoro-phenyl]-4-methyl-7,8-dihydro-6H-quinazolin-5-one]"
19,< 1 µM,"COc1nc(-c2cc(F)ccc2[C@@H]2CC(=O)c3c(C)nc(N)nc3C2)c(C)nc1N [Compound 337, (S)-2-amino-7-[2-(5-amino-6-methoxy-3-methyl-pyrazin-2-yl)-4-fluoro-phenyl]-4-methyl-7,8-dihydro-6H-quinazolin-5-one]"
